Patent publication US8987256B2, “Oxo-heterocyclic substituted carboxylic acid derivatives and the use thereof” (Bayer Intellectual Property GmbH, priority 2008, dated 2015)

Molecular target: T1, soluble guanylate cyclase (sGC) (Rattus norvegicus, UniProt P20595)
T1 construct: made in house; host or cells: baculovirus/Sf9 insect cells
T1 sequence (P20595 1-619): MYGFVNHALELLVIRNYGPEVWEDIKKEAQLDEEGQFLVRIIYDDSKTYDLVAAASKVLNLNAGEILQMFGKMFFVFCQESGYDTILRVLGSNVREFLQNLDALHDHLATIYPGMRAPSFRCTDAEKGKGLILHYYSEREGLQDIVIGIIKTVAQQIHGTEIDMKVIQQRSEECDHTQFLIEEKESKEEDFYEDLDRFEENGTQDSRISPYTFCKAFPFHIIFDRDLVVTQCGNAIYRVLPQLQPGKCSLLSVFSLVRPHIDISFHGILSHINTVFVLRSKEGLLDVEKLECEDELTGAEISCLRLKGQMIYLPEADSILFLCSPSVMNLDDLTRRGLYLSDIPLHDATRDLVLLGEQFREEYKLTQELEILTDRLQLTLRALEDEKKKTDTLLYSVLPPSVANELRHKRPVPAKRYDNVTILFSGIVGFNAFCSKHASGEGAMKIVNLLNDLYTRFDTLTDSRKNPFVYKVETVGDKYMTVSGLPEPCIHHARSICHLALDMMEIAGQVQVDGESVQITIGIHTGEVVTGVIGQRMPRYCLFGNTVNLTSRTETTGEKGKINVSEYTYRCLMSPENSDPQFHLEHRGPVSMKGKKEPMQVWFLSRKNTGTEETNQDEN
T1 sequence (P19686 1-690 partner): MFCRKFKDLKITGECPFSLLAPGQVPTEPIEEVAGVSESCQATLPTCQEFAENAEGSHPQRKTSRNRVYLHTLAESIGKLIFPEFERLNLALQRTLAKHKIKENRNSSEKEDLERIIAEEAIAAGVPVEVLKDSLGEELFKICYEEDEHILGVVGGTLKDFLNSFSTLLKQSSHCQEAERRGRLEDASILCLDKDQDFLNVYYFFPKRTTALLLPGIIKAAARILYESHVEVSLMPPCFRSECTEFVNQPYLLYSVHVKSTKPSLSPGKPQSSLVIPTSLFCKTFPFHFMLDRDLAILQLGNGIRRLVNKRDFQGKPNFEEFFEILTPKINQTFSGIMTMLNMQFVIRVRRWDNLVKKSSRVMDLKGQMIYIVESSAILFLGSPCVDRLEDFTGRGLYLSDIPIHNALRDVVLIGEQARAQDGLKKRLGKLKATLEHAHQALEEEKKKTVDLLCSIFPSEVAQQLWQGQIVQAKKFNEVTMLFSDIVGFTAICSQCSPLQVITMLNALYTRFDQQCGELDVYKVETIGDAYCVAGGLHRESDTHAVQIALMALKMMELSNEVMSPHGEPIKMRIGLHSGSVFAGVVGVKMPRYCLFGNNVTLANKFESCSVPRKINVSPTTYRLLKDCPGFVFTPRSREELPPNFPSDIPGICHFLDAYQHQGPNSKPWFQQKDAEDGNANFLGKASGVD
Test: Activating action at the sGC enzyme in vitro (PPi detection, luciferase)
Type: biochemical
In short: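 Rat sGC (0–10 nM) preincubated 10 min at room temperature with compound in TEA buffer, pH 7.5; reaction started with GTP (1.25 mM solution). PPi formed read continuously by luciferase luminescence; stimulation expressed relative to unstimulated enzyme. Heme-free enzyme tested after 30 min with 25 μM ODQ.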

MEC (minimum effective concentration), activating action at the sGC enzyme: 20 nM
EC50 (read-out: EC50 (concentration at 50% of maximum efficacy), activating action at the sGC enzyme): 381 nM
Structure (SMILES): O=C(O)CCc1cccc(NC(=O)C(c2ccc(CN3N=C(c4ccccc4)OCC3=O)cc2)C2CCCC2)c1 (single isomer, unassigned) [Example 103, 3-{3-[(Cyclopentyl{4-[(5-oxo-2-phenyl-5,6-dihydro-4H-1,3,4-oxadiazin-4-yl)methyl]phenyl}acetyl)amino]phenyl}propanoic acid]
